Results on 3 compounds are retold here after ChEMBL document CHEMBL1150700, “Antitumor agents, 74. Bruceanol-A and -B, two new antileukemic quassinoids from Brucea antidysenterica” (1985).

Holding throughout (assay type): functional
In assay [1] the test system is P388. Nature of the assay: In vivo antitumor activity against mouse P388 cells at 0.5 mg/kg in 3 day dosing schedule relative to control.
The subject of assay [2] is P388. Nature of the assay: In vivo antitumor activity against mouse P388 cells at 1 mg/kg in 3 day dosing schedule relative to control.
Assay [3] deals with P388. Nature of the assay: In vivo antitumor activity against mouse P388 cells at 2 mg/kg in 3 day dosing schedule relative to control.
The subject of assay [4] is P388. The assay is described as follows: In vivo antitumor activity against mouse P388 cells at 200 mg/kg in 1 day dosing schedule relative to control.

Take `COC(=O)[C@@]12OC[C@]34[C@H]([C@@H](O)[C@@H]1O)[C@@]1(C)[C@H](O)C(=O)C=C(C)[C@@H]1C[C@H]3OC(=O)[C@H](OC(=O)c1ccccc1)[C@@H]24`: the T/C in assay [1] is 130%; in assay [2] it was 129%.

With `CCCCCC(=O)O[C@H]1C(=O)O[C@@H]2C[C@H]3C(C)=CC(=O)[C@@H](O)[C@]3(C)[C@H]3[C@@H](O)[C@H](O)[C@@]4(C(=O)OC)OC[C@]32[C@@H]14`, the T/C worked out at 123% in assay [1] and 134% in assay [3].

For the compound `O=c1[nH]cc(F)c(=O)[nH]1` [FLUOROURACIL], the T/C in assay [4] was 135%.
